Source: patent publication US9156845B2, “4-(substituted amino)-7H-pyrrolo[2,3-d] pyrimidines as LRRK2 inhibitors” (Pfizer Inc., priority 2012, dated 2015)

What was measured:
Experiment in all cases: ActivX kinase probe assay (human PBMC)
Format in all cases: binding
[1] = biological target: BTK (Homo sapiens (Human), UniProt Q06187); conditions: read-out: percent inhibition
[2] = biological target: CaMK1d (Homo sapiens (Human), UniProt Q8IU85); conditions: read-out: percent inhibition
[3] = biological target: DNAPK (Homo sapiens (Human), UniProt P78527); conditions: read-out: percent inhibition
[4] = biological target: EphA1 (Homo sapiens (Human), UniProt P21709); conditions: read-out: percent inhibition
[5] = biological target: FGR (Homo sapiens (Human), UniProt P09769); conditions: read-out: percent inhibition
[6] = biological target: FRAP (Homo sapiens (Human), UniProt P42345); conditions: read-out: percent inhibition
[7] = biological target: GSK3B (Homo sapiens (Human), UniProt P49841); conditions: read-out: percent inhibition
[8] = biological target: HPK1 (Homo sapiens (Human), UniProt Q92918); conditions: read-out: percent inhibition
[9] = biological target: IKKa (Homo sapiens (Human), UniProt O15111); conditions: read-out: percent inhibition
[10] = biological target: IKKb (Homo sapiens (Human), UniProt O14920); conditions: read-out: percent inhibition
[11] = biological target: ILK (Homo sapiens (Human), UniProt Q13418); conditions: read-out: percent inhibition
[12] = biological target: IRAK3 (Homo sapiens (Human), UniProt Q9Y616); conditions: read-out: percent inhibition
[13] = biological target: JAK1 (Homo sapiens (Human), UniProt P23458); conditions: read-out: percent inhibition
[14] = biological target: JAK3 domain2 (Homo sapiens (Human), UniProt P52333); conditions: read-out: percent inhibition
[15] = test system: JNK1, JNK2, JNK3
[16] = biological target: LKB1 (Homo sapiens (Human), UniProt Q15831); conditions: read-out: percent inhibition
[17] = biological target: LYN (Homo sapiens (Human), UniProt P07948); conditions: read-out: percent inhibition
[18] = biological target: MAP2K3 (Homo sapiens (Human), UniProt P46734); conditions: read-out: percent inhibition
[19] = biological target: MAP2K4 (Homo sapiens (Human), UniProt P45985); conditions: read-out: percent inhibition
[20] = biological target: MAP3K1 (Homo sapiens (Human), UniProt Q13233); conditions: read-out: percent inhibition
[21] = biological target: MARK3 (Homo sapiens (Human), UniProt P27448); conditions: read-out: percent inhibition
[22] = biological target: MST3 (Homo sapiens (Human), UniProt Q9Y6E0); conditions: read-out: percent inhibition
[23] = biological target: NEK1 (Homo sapiens (Human), UniProt Q96PY6); conditions: read-out: percent inhibition
[24] = test system: NEK6, NEK7
[25] = biological target: NEK7 (Homo sapiens (Human), UniProt Q8TDX7); conditions: read-out: percent inhibition
[26] = test system: p38d, p38g
[27] = biological target: p70S6K (Homo sapiens (Human), UniProt P23443); conditions: read-out: percent inhibition
[28] = test system: p70S6K, p70S6Kb
[29] = biological target: PIK3C3 (Homo sapiens (Human), UniProt Q8NEB9); conditions: read-out: percent inhibition
[30] = biological target: PIK3CB (Homo sapiens (Human), UniProt P42338); conditions: read-out: percent inhibition
[31] = biological target: PYK2 (Homo sapiens (Human), UniProt Q14289); conditions: read-out: percent inhibition
[32] = biological target: RSK1 domain1 (Homo sapiens (Human), UniProt Q15418); conditions: read-out: percent inhibition
[33] = biological target: SLK (Homo sapiens (Human), UniProt Q9H2G2); conditions: read-out: percent inhibition
[34] = biological target: STLK5 (Homo sapiens (Human), UniProt Q7RTN6); conditions: read-out: percent inhibition
[35] = test system: TAO1, TAO3
[36] = test system: Wnk1, Wnk2, Wnk4

Chain of JAK1 (P23458 whole entry, the tested form may be a part): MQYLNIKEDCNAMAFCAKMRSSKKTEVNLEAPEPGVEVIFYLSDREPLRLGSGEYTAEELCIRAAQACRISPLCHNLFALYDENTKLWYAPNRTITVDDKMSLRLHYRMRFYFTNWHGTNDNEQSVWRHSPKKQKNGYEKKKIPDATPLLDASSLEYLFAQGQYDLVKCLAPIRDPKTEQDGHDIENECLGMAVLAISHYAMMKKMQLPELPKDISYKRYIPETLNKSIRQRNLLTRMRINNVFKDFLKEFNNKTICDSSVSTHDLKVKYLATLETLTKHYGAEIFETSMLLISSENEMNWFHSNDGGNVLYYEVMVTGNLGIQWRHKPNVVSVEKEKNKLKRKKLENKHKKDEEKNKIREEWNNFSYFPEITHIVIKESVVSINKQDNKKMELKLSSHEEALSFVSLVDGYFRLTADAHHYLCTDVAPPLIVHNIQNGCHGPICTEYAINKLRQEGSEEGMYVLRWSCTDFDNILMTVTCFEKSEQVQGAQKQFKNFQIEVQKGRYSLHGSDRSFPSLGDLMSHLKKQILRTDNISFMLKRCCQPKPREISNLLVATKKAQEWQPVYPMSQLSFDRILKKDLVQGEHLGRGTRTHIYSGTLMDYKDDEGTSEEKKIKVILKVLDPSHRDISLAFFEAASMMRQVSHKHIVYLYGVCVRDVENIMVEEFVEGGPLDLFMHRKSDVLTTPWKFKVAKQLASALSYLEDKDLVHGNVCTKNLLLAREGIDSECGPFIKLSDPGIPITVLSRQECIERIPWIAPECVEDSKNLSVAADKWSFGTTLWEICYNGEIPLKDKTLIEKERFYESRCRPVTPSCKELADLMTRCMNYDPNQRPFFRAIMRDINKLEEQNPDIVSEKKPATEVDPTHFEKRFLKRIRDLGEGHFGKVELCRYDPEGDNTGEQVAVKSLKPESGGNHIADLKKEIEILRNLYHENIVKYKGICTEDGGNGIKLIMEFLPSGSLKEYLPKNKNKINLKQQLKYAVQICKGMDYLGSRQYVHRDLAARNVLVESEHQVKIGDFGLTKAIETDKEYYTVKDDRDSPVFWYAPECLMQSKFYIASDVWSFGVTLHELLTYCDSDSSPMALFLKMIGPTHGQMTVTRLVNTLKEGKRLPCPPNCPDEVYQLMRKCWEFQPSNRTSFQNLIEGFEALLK
Chain of ILK (Q13418 whole entry): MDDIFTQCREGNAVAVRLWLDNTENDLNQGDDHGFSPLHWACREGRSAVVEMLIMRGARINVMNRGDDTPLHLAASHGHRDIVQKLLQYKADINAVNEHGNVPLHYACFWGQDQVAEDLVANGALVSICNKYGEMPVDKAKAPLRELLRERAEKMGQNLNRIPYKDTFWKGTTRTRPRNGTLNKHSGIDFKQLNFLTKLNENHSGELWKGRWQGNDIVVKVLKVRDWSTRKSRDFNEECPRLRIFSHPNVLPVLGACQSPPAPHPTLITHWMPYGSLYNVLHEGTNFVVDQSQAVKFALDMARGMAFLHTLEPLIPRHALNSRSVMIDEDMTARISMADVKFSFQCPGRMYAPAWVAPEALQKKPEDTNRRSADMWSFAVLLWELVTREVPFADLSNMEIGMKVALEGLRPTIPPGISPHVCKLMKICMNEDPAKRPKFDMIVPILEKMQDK
Chain of IKKa (O15111 whole entry): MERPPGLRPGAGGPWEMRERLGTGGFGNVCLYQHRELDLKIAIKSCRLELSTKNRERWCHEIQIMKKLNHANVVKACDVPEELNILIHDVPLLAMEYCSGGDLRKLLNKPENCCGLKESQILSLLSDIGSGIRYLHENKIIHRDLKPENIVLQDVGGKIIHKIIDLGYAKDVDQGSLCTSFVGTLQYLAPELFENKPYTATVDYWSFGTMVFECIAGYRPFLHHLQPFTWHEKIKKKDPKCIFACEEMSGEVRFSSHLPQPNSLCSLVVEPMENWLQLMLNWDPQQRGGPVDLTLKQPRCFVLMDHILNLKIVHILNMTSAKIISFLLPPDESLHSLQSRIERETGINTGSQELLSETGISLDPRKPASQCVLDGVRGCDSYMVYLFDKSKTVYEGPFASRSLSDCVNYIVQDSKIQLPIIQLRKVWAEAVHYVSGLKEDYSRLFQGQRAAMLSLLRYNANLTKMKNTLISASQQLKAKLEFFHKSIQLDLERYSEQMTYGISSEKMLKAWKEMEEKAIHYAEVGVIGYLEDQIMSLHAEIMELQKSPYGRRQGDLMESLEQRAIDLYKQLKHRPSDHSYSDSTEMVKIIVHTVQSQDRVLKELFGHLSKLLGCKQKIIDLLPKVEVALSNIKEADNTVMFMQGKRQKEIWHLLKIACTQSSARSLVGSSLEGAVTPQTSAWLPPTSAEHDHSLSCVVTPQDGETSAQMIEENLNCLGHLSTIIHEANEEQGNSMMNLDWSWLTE
Chain of PIK3CB (P42338 whole entry): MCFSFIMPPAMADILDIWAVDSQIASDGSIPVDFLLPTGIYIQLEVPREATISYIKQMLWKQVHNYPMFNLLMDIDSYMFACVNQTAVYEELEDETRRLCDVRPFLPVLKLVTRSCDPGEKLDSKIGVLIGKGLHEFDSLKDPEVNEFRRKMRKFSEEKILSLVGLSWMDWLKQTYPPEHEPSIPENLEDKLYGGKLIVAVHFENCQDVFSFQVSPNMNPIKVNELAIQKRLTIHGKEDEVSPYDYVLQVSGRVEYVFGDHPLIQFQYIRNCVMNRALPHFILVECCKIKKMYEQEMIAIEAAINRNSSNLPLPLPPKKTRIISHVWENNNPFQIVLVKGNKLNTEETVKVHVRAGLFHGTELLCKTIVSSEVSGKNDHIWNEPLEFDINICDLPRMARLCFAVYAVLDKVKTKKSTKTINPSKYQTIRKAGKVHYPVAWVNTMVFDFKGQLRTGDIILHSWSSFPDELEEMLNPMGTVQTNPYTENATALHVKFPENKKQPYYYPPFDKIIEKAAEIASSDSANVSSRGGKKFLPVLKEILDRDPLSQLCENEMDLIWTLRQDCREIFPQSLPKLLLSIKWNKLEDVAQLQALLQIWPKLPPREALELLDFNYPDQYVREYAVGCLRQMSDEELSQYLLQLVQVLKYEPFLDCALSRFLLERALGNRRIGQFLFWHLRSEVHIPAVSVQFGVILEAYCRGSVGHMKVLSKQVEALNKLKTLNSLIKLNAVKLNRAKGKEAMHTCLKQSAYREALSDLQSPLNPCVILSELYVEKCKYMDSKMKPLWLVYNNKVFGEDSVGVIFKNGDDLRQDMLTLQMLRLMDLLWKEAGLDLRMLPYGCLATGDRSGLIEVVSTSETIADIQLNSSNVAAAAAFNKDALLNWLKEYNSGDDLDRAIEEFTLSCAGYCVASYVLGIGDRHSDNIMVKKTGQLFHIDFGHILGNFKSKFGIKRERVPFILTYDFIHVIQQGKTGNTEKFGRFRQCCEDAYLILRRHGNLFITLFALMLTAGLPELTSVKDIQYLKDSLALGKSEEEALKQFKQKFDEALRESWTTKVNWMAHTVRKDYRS
Chain of PIK3CB (P27986 whole entry partner): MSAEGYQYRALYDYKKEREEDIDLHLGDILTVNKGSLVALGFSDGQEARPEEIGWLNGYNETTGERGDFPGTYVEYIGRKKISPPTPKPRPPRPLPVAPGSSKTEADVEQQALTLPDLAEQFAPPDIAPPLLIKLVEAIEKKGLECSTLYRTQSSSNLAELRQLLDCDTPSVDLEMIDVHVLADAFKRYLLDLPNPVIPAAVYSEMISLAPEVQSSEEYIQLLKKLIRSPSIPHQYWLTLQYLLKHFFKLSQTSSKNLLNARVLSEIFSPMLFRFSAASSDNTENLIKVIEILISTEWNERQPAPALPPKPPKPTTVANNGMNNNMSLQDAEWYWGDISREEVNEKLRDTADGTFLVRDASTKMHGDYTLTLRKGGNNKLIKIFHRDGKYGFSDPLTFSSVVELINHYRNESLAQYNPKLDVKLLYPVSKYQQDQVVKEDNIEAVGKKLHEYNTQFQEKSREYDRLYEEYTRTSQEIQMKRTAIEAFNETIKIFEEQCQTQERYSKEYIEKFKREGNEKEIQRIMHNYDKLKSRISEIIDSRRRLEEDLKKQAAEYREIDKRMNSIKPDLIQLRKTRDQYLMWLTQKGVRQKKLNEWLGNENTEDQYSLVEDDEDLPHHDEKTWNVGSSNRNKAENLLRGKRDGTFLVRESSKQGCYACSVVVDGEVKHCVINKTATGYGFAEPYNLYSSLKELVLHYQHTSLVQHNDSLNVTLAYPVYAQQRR
Chain of NEK7 (Q8TDX7 whole entry): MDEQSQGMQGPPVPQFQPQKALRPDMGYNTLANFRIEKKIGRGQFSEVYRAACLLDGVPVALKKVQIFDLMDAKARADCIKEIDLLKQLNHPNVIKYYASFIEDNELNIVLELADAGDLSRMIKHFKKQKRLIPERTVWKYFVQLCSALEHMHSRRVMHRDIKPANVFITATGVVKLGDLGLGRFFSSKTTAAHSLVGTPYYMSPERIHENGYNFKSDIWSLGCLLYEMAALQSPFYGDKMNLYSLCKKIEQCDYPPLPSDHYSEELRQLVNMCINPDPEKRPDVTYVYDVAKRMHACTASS
Chain of LYN (P07948 whole entry): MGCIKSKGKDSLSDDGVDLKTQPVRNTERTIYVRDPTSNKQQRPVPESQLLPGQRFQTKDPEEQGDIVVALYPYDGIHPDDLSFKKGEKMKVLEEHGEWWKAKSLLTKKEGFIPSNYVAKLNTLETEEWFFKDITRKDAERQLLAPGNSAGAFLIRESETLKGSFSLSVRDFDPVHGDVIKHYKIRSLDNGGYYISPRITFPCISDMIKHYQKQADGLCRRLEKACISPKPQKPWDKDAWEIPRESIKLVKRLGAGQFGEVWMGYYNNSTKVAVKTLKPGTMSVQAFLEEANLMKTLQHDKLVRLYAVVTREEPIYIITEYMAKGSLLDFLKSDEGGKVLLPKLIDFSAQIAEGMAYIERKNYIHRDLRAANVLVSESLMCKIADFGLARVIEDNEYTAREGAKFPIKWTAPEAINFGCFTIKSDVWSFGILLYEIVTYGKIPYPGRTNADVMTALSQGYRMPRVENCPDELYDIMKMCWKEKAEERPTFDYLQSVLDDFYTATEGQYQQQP

## N#Cc1cccc(-c2c[nH]c3ncnc(N4CCOCC4)c23)c1 [Example 4, 3-[4-(Morpholin-4-yl)-7H-pyrrolo[2,3-d]pyrimidin-5-yl]benzonitrile]
[1]
  inhibition at 0.1 µM: -2.2%
  inhibition at 1 µM: 9.5%
[2]
  inhibition at 0.1 µM: -12.1%
  inhibition at 1 µM: 0.9%
[3]
  inhibition at 0.1 µM: -19.3%
  inhibition at 1 µM: 14.7%
[4]
  inhibition at 0.1 µM: -17%
  inhibition at 1 µM: -2.5%
[5]
  inhibition at 0.1 µM: -10.8%
  inhibition at 1 µM: 1.7%
[6]
  inhibition at 0.1 µM: -20.7%
  inhibition at 1 µM: 9.8%
[7]
  inhibition at 0.1 µM: -3.7%
  inhibition at 1 µM: 6.7%
[8]
  inhibition at 0.1 µM: -1.5%
  inhibition at 1 µM: 5.7%
[9]
  inhibition at 0.1 µM: -12.1%
  inhibition at 1 µM: -6.6%
[10]
  inhibition at 0.1 µM: -15.5%
  inhibition at 1 µM: -15.8%
[11]
  inhibition at 0.1 µM: -8.9%
  inhibition at 1 µM: -31.6%
[12]
  inhibition at 0.1 µM: 29.8%
  inhibition at 1 µM: 33.7%
[13]
  inhibition at 0.1 µM: -9.3%
  inhibition at 1 µM: 5%
[14]
  inhibition at 0.1 µM: 6.9%
  inhibition at 1 µM: 6.8%
[15]; 0.1 μM
  percent inhibition: −5.3%
[15]; 1 μM
  percent inhibition: 5.4%
[16]
  inhibition at 0.1 µM: 3.5%
  inhibition at 1 µM: 16.5%
[17]
  inhibition at 0.1 µM: -5.4%
  inhibition at 1 µM: 0.8%
[18]
  inhibition at 0.1 µM: -12.5%
  inhibition at 1 µM: 6.2%
[19]
  inhibition at 0.1 µM: -20.5%
  inhibition at 1 µM: 19.2%
[20]
  inhibition at 0.1 µM: 6.4%
  inhibition at 1 µM: 44.5%
[21]
  inhibition at 0.1 µM: -2.6%
  inhibition at 1 µM: 23.7%
[22]
  inhibition at 0.1 µM: 0.1%
  inhibition at 1 µM: 46.2%
[23]
  inhibition at 0.1 µM: -8.9%
  inhibition at 1 µM: -1.9%
[24]; 0.1 μM
  percent inhibition: −5.3%
[24]; 1 μM
  percent inhibition: −4.9%
[25]
  inhibition at 0.1 µM: 2.2%
  inhibition at 1 µM: 7.3%
[26]; 0.1 μM
  percent inhibition: −17.5%
[26]; 1 μM
  percent inhibition: −5.7%
[27]
  inhibition at 0.1 µM: -9%
  inhibition at 1 µM: 11.1%
[28]; 0.1 μM
  percent inhibition: −10.5%
[28]; 1 μM
  percent inhibition: −9.6%
[29]
  inhibition at 0.1 µM: -2.4%
  inhibition at 1 µM: 13.6%
[30]
  inhibition at 0.1 µM: 0.5%
  inhibition at 1 µM: -2.5%
[31]
  inhibition at 0.1 µM: -3.9%
  inhibition at 1 µM: 2.5%
[32]
  inhibition at 0.1 µM: -26.8%
  inhibition at 1 µM: 32.9%
[33]
  inhibition at 0.1 µM: 10.5%
  inhibition at 1 µM: 60.7%
[34]
  inhibition at 0.1 µM: -15.4%
  inhibition at 1 µM: 1.2%
[35]; 0.1 μM
  percent inhibition: −6.5%
[35]; 1 μM
  percent inhibition: 5.9%
[36]; 0.1 μM
  percent inhibition: −1.9%
[36]; 1 μM
  percent inhibition: −1.3%
